The test system of the assay is A. galli (intestinal roundworm of chicken) larval stage 3; O. dentatum (nodular worm of swine) larval stages 3 and 4. The experiment in a line: Activity against Ascaridia galli and Oesophagostomum dentatum larvae in vitro (minimum effective concentration). In kind it is cell-based. The conditions noted are these: in vitro.
Where [1] appears, read: one or more of A. galli L3, O. dentatum L3, L4, threshold 7 μM, read-out: MEC (minimum effective concentration) against one or more of the tested nematodes.
Setting [2] is: one or more of A. galli L3, O. dentatum L3, L4, threshold 1 μM, read-out: MEC (minimum effective concentration) against one or more of the tested nematodes.
The mark [3] stands for this setting: two or more of A. galli L3, O. dentatum L3, L4, threshold 1 μM, read-out: MEC (minimum effective concentration) against two or more of the tested nematodes.

Each structure is given as a SMILES string. Read-outs that look alike come from different tables or passages of the source.

On to `CCCc1ccc(C2CCN(CCC(=O)N3CCC(Nc4ccc([N+](=O)[O-])c(OCC)c4)CC3)CC2)cc1` [Example 399], for which the minimal effective concentration under setting [1] is below 7 µM.
As for `CCOc1cc(NC2CCN(C(=O)CCN3CCC(c4ccc(C(C)(C)C)cc4)CC3)CC2)ccc1[N+](=O)[O-]` [Example 400], the minimal effective concentration by setting is: under setting [2], below 1 µM; under setting [1], below 7 µM.
On to `CCOc1cc(NC2CCN(C(=O)CCN3CCN(c4ccc(C(F)(F)F)cc4)CC3)CC2)ccc1[N+](=O)[O-]` [Example 402], for which the minimal effective concentration is, setting by setting: under setting [2], below 1 µM; under setting [1], below 7 µM; under setting [3], below 1 µM.
Take `CCOc1cc(NC2CCN(C(=O)CCN3CCN(c4ccc(Cl)cc4)CC3)CC2)ccc1[N+](=O)[O-]` [Example 405]: the minimal effective concentration under setting [1] is below 7 µM.
On the same count and under the same terms, under `CCOc1cc(NC2CCN(C(=O)CCN3CCN(c4ccc(OCc5ccccc5)cc4)CC3)CC2)ccc1[N+](=O)[O-]` [Example 407] stands below 7 µM; under `CCOc1cc(NC2CCN(C(=O)CCN3CCN(c4ccc(OC)cc4)CC3)CC2)ccc1[N+](=O)[O-]` [Example 408], below 7 µM.
Still for that read-out and setting: next, `CCOc1cc(NC2CCN(C(=O)CCN3CCN(c4ccc(Cl)cc4F)CC3)CC2)ccc1[N+](=O)[O-]` [Example 410]: below 7 µM.
In the case of `O=C(CCN1CCN(c2ccc(Cl)cc2)CC1)N1CCC(Oc2ccc([N+](=O)[O-])c(C(F)(F)F)c2)CC1` [Example 421], the minimal effective concentration under setting [3] is below 1 µM.
The same measure, in the same setting: under `O=C(CCN1CCN(c2ccc(OCc3ccccc3)cc2)CC1)N1CCC(Oc2ccc([N+](=O)[O-])c(C(F)(F)F)c2)CC1` [Example 423] stands below 1 µM; under `COc1ccc(N2CCN(CCC(=O)N3CCC(Oc4ccc([N+](=O)[O-])c(C(F)(F)F)c4)CC3)CC2)cc1OC` [Example 424], below 1 µM.
In the case of `O=C(CCN1CCN(c2ccc(Cl)cc2)CC1)N1CCC(Oc2ccc([N+](=O)[O-])c(C(F)(F)F)c2)CC1` [Example 433], the minimal effective concentration under setting [2] was below 1 µM.
Regarding `COc1ccc(C2CCN(CCC(=O)N3CCC(Oc4ccc([N+](=O)[O-])c(C(F)(F)F)c4)CC3)CC2)cc1` [Example 435], the minimal effective concentration under setting [3] was below 1 µM.
Still for that read-out and setting: next, `O=C(CCN1CCC(c2ccc(F)c(F)c2)CC1)N1CCC(Oc2ccc([N+](=O)[O-])c(C(F)(F)F)c2)CC1` [Example 436]: below 1 µM.
On the same count and under the same terms, next, `O=C(CCN1CCC(c2ccc(C(F)(F)F)cc2)CC1)N1CCC(Oc2ccc([N+](=O)[O-])c(C(F)(F)F)c2)CC1` [Example 438]: below 1 µM.
As for `O=C(CCN1CCC(c2ccc(-c3ccccc3)cc2)CC1)N1CCC(Oc2ccc([N+](=O)[O-])c(C(F)(F)F)c2)CC1` [Example 442], the minimal effective concentration under setting [1] is below 7 µM.
`Cn1nnc(-c2ccc(NC3CCN(C(=O)CCN4CCN(c5ccc(Cl)cc5)CC4)CC3)cc2)n1` [Example 445]: the minimal effective concentration is below 1 µM under setting [2], below 7 µM under setting [1] and below 1 µM under setting [3].
For the compound `CC(C)COc1cc(NC2CCN(C(=O)CCN3CCC(c4ccc(C(C)(C)C)cc4)CC3)CC2)ccc1[N+](=O)[O-]` [Example 457], the minimal effective concentration under setting [1] is below 7 µM.
`CC(C)COc1cc(NC2CCN(C(=O)CCN3CCN(c4ccc(C(F)(F)F)cc4)CC3)CC2)ccc1[N+](=O)[O-]` [Example 459]: the minimal effective concentration reads like this: under setting [2], below 1 µM; under setting [1], below 7 µM.
As to `CC(C)COc1cc(NC2CCN(C(=O)CCN3CCN(c4ccc(F)cc4F)CC3)CC2)ccc1[N+](=O)[O-]` [Example 469], under setting [1], the minimal effective concentration was below 7 µM.
`COc1cc(OC2CCN(C(=O)CCN3CCN(c4ccc(Cl)cc4F)CC3)CC2)ccc1[N+](=O)[O-]` [Example 476]: under setting [1], the minimal effective concentration is below 7 µM.
On to `COc1cc(OC2CCN(C(=O)CCN3CCN(c4ccc(F)cc4F)CC3)CC2)ccc1[N+](=O)[O-]` [Example 477], for which, under setting [1], the minimal effective concentration is below 7 µM.
Same read-out and setting: under `COc1cc(OC2CCN(C(=O)CCN3CCN(c4ccc(C(F)(F)F)cc4)CC3)CC2)ccc1[N+](=O)[O-]` [Example 479] stands below 7 µM.
For the compound `COc1ccc(C2CCN(CCC(=O)N3CCC(Oc4ccc([N+](=O)[O-])c(OC)c4)CC3)CC2)cc1` [Example 484], the minimal effective concentration under setting [2] was below 1 µM.
The same measure, in the same setting: next, `CCCc1ccc(C2CCN(CCC(=O)N3CCC(Oc4ccc([N+](=O)[O-])c(OC)c4)CC3)CC2)cc1` [Example 489]: below 1 µM.
As for `CCOc1cc(OC2CCN(C(=O)CCN3CCN(c4ccc(OC)c(OC)c4)CC3)CC2)ccc1[N+](=O)[O-]` [Example 495], the minimal effective concentration by setting is: under setting [2], below 1 µM; under setting [1], below 7 µM; under setting [3], below 1 µM.
Take `CCOc1cc(OC2CCN(C(=O)CCN3CCN(c4ccc(OCc5ccc(C(F)(F)F)cc5)cc4)CC3)CC2)ccc1[N+](=O)[O-]` [Example 497]: under setting [1], the minimal effective concentration is below 7 µM.
Same read-out and setting: next, `CCOc1cc(OC2CCN(C(=O)CCN3CCN(c4ccc(Cl)cc4F)CC3)CC2)ccc1[N+](=O)[O-]` [Example 498]: below 7 µM.
For `CCOc1cc(OC2CCN(C(=O)CCN3CCN(c4ccc(C(C)(C)C)cc4)CC3)CC2)ccc1[N+](=O)[O-]` [Example 502], the minimal effective concentration by setting is: under setting [2], below 1 µM; under setting [1], below 7 µM.
On to `CCOc1cc(OC2CCN(C(=O)CCN3CCC(c4ccc(C(C)(C)C)cc4)CC3)CC2)ccc1[N+](=O)[O-]` [Example 509], for which the minimal effective concentration under setting [2] was below 1 µM.
With `CC(C)COc1cc(OC2CCN(C(=O)CCN3CCN(c4ccc(Cl)cc4)CC3)CC2)ccc1[N+](=O)[O-]` [Example 512], the minimal effective concentration under setting [1] was below 7 µM.
Same read-out and setting: under `COc1ccc(N2CCN(CCC(=O)N3CCC(Oc4ccc([N+](=O)[O-])c(OCC(C)C)c4)CC3)CC2)cc1OC` [Example 515] stands below 7 µM.
Turning to `COc1ccc(N2CCN(CCC(=O)N3CCC(Oc4ccc([N+](=O)[O-])c(OCC(C)C)c4)CC3)CC2)cc1` [Example 516], the minimal effective concentration runs as follows: under setting [2], below 1 µM; under setting [1], below 7 µM.
`CC(C)COc1cc(OC2CCN(C(=O)CCN3CCN(c4ccc(Cl)cc4F)CC3)CC2)ccc1[N+](=O)[O-]` [Example 519]: the minimal effective concentration under setting [1] is below 7 µM.
Still for that read-out and setting: under `CC(C)COc1cc(OC2CCN(C(=O)CCN3CCN(c4ccc(F)cc4F)CC3)CC2)ccc1[N+](=O)[O-]` [Example 520] stands below 7 µM.
On to `CC(C)(C)c1ccc(N2CCN(CCC(=O)N3CCC(Nc4ccc([N+](=O)[O-])nc4)CC3)CC2)cc1` [Example 550], for which the minimal effective concentration under setting [2] is below 1 µM.
Take `CC(C)(C)c1ccc(N2CCN(CCC(=O)N3CCC(Nc4ccc([N+](=O)[O-])cn4)CC3)CC2)cc1` [Example 551]: the minimal effective concentration is below 1 µM under setting [2] and below 1 µM under setting [3].
For `O=C(CCCN1CCN(c2ccc(Cl)cc2)CC1)N1CCC(Nc2ccc([N+](=O)[O-])cn2)CC1` [Example 559], the minimal effective concentration under setting [3] is below 1 µM.
On the same count and under the same terms, next, `Cc1cc(NC2CCN(C(=O)CCN3CCN(C(=O)c4cccc(C(F)(F)F)c4)CC3)CC2)ccc1[N+](=O)[O-]` [Example 561]: below 1 µM.
Turning to `CCOc1cc(OC2CCN(C(=O)CCN3CCN(c4ccc(-c5ccccc5)cc4)CC3)CC2)ccc1[N+](=O)[O-]` [Example 578], under setting [3], the minimal effective concentration was below 1 µM.

The values are drawn from patent publication US9096524B2, “Anthelmintic agents and their use” (Intervet International B.V., priority 2009, dated 2015).
